Measured values as given in BindingDB's records for doi:10.1021/jm050738x (University of Tokyo, 2006).

Assay: Antagonist activity assessed by differentiation of 1,25-D3-induced HL60 cells

Row | SMILES | IC50 [nM]
1 | C=C1/C(=C\C=C2/CCC[C@]3(C)[C@@H]([C@H](C)C[C@H]4C[C@](C)(O)C(=O)N4CCCc4ccccc4)CC[C@@H]23)C[C@@H](O)C[C@@H]1O [(3S,5S)-5-((R)-2-((1R,3aS,7aR)-4-(2-((3S,5R)-3,5-dihydroxy-2-methylenecyclohexylidene)ethylidene)-7a-methyl-octahydro-1H-inden-1-yl)propyl)-3-hydroxy-3-methyl-1-(3-phenylpropyl)pyrrolidin-2-one] | 2200
2 | C=C1/C(=C\C=C2/CCC[C@]3(C)[C@@H]([C@H](C)C[C@H]4C[C@](C)(O)C(=O)N4CCCCc4ccccc4)CC[C@@H]23)C[C@@H](O)C[C@@H]1O [(3S,5S)-5-((R)-2-((1R,3aS,7aR)-4-(2-((3S,5R)-3,5-dihydroxy-2-methylenecyclohexylidene)ethylidene)-7a-methyl-octahydro-1H-inden-1-yl)propyl)-3-hydroxy-3-methyl-1-(4-phenylbutyl)pyrrolidin-2-one] | 390
3 | C=C1/C(=C\C=C2/CCC[C@@]3(C)C2CC[C@@H]3[C@H](C)C[C@H]2C[C@](C)(O)C(=O)N2C(C)C)C[C@@H](O)C[C@@H]1O (some centres not stated) | > 1000
4 | C=C1/C(=C\C=C2/CCC[C@]3(C)[C@@H]([C@H](C)C[C@H]4C[C@](C)(O)C(=O)N4CCc4ccccc4)CC[C@@H]23)C[C@@H](O)C[C@@H]1O [(3S,5S)-5-((R)-2-((1R,3aS,7aR)-4-(2-((3S,5R)-3,5-dihydroxy-2-methylenecyclohexylidene)ethylidene)-7a-methyl-octahydro-1H-inden-1-yl)propyl)-3-hydroxy-3-methyl-1-phenethylpyrrolidin-2-one] | 207

Results, then the compound that gave them:

Row | IC50 [nM] | SMILES
5 | > 2000 | C=C1/C(=C\C=C2/CCC[C@]3(C)[C@@H]([C@H](C)C[C@H]4C[C@@](C)(O)C(=O)N4CCc4ccccc4)CC[C@@H]23)C[C@@H](O)C[C@@H]1O [(3R,5S)-5-((R)-2-((1R,3aS,7aR,E)-4-((Z)-2-((3S,5R)-3,5-dihydroxy-2-methylenecyclohexylidene)ethylidene)-7a-methyloctahydro-1H-inden-1-yl)propyl)-3-hydroxy-3-methyl-1-phenethylpyrrolidin-2-one]
6 | 700 | C=C1/C(=C\C=C2/CCC[C@]3(C)[C@@H]([C@H](C)C[C@H]4C[C@](C)(O)C(=O)N4Cc4ccccc4)CC[C@@H]23)C[C@@H](O)C[C@@H]1O [(3S,5S)-1-benzyl-5-((R)-2-((1R,3aS,7aR)-4-(2-((3S,5R)-3,5-dihydroxy-2-methylenecyclohexylidene)ethylidene)-7a-methyl-octahydro-1H-inden-1-yl)propyl)-3-hydroxy-3-methylpyrrolidin-2-one]
7 | 660 | C=C1/C(=C\C=C2/CCC[C@@]3(C)C2CC[C@@H]3[C@H](C)C[C@H]2C[C@](C)(O)C(=O)N2Cc2ccc(OC)cc2)C[C@@H](O)C[C@@H]1O (some centres not stated)
